Tests used:
[1] = test system: Human Valvular Interstitial Cells (hVICs); experiment: human monocytes secretome-induced hVICs calcification (o-cresolphthalein complexone calcium measurement); format: cell-based
Text: Human aortic valves form AS patients who underwent aortic valve surgical replacement were collected at Rouen University Hospital, starting on May 2 2016, after agreement of The CPP Nord-Ouest I (RCB: 2016-A00137-44). Human Valvular Interstitial Cells (hVICs) were isolated and cultured as already described. (Morvan, Arangalage et al. 2019) Briefly, aortic valve leaflets previously collected and washed in PBS containing antibiotics were cut into pieces and digested with type I collagenase (0.22 U/mg) for 3 hours at 37° C. Digested valves are filters on 70 μm cell strainers to remove undigested valve parts and obtain a homogenous cell suspension resuspended in complete smooth muscle cell basal 2 medium (PromoCell, Heidelberg, Germany) with 10% Fetal Bovine Serum (FBS) Penicillin/Streptomycin (P/S, Sigma-Aldrich Cat #P4333). Cell suspension is then seeded into rat type collagen I (3 mg/ml, Gibco, Cat #A1048301) coated flask and incubated at 37° C., 5% CO2 for several days until reaching cell confluency. At this step hVICs are obtained and cultured in DMEM (Dulbecco's modified Eagle's medium, Gibco, Cat #41966-029) with 10% FBS and P/S until passage 4. […]
(§1) Previously isolated hVICs were treated for 10 days with human monocytes and M1 macrophages CM diluted v/v with DMEM (Gibco, Cat #41966-029) in the presence or not of inorganic […] (Pi) at a final concentration up to 1.9 mM (0.9 mM of […] already present in DMEM). Treatment with conditioned medium was renewed every 2 days and calcium content in each well was measured with the o-cresolphthalein complexone colorimetric method. […]
Data are obtained from indicated number of hVICs isolated from distinct patients. […] Data are expressed as mean values of control (DMSO (vehicle) treated monocytes or M1 macrophages)±SEM. When indicated, statistical significance was determined by non-parametric Kruskal-Wallis test followed by Dunns post-hoc test using Graphpad Prism 5 software. The use of non-parametric Kruskal-Wallis test was determined depending Shapiro-Wilk normality test data distribution.

[2] = test system: Human Valvular Interstitial Cells (hVICs); experiment: human M1 macrophages secretome-induced hVICs calcification (o-cresolphthalein complexone calcium measurement); format: cell-based; conditions: M1 macrophages pre-treatment (5 μM, 72 h); n=1 VICs patient in triplicates, CM from n=1 volunteer; FIG. 4
Text: Human aortic valves form AS patients who underwent aortic valve surgical replacement were collected at Rouen University Hospital, starting on May 2 2016, after agreement of The CPP Nord-Ouest I (RCB: 2016-A00137-44). Human Valvular Interstitial Cells (hVICs) were isolated and cultured as already described. (Morvan, Arangalage et al. 2019) Briefly, aortic valve leaflets previously collected and washed in PBS containing antibiotics were cut into pieces and digested with type I collagenase (0.22 U/mg) for 3 hours at 37° C. […]
as §1
Data are obtained from indicated number of hVICs isolated from distinct patients. […] Data are expressed as mean values of control (DMSO (vehicle) treated monocytes or M1 macrophages)±SEM. When indicated, statistical significance was determined by non-parametric Kruskal-Wallis test followed by Dunns post-hoc test using Graphpad Prism 5 software. […]

CC[C@H](C)n1cc(C)c2c(C(=O)NCc3c(C)cc(C)[nH]c3=O)cc(-c3ccc(N4CCNCC4)nc3)cc21 [GSK-126]
CAVD patient monocytes secretome-induced hVICs calcification ([1]; monocytes from CAVD patients pre-treated with 5 μM for 72 h, CM1, hVICs with 1.9 mM Pi for 10 days, vs vehicle (DMSO), FIG. 2): significantly reduced | volunteer monocytes secretome-induced hVICs calcification ([1]; monocytes from volunteers pre-treated with 5 μM for 72 h, CM1, hVICs with 1.9 mM Pi for 10 days, vs vehicle (DMSO), FIG. 1): significantly reduced | volunteer monocytes secretome-induced hVICs calcification 24 h after monocytes pre-treatment ([1]; monocytes from volunteers, 72 h pre-treatment then new conditioned medium for 24 h (CM2) in the absence of inhibitor, 1.9 mM Pi, FIG. 3): the same result was obtained | M1 secretome-induced hVICs calcification [2]: reduced

Source: patent US20240350508A1, “USE OF EZH2 INHIBITORS FOR THE TREATMENT OF AORTIC VALVE STENOSIS” (INSERM (INSTITUT NATIONAL DE LA SANTÉ ET DE LA RECHERCHE …, priority 2021, published 2024)
